Blank lines part the entries; values can stand above or below the compound they belong to.
Legend:
Type in all cases: physicochemical
[1] = H-1: solubility of CAPE with NaTC (HPLC); details: 1.4 mg CAPE (as complex or alone) in 5 mL water, sonicated 3 minutes
Method: As a comparison, water or a solution prepared by dissolving a super solubilizer (1.0% (w/v) NaTC) in water was combined with 1.4 mg of CAPE (in lieu of CAPE-γCD complex) and the mixture was prepared as described above. The resulting mixture was left to stand and filtered and the resulting solution was analyzed using HPLC.

[2] = B-1: solubility of CoQ10 with NaTC (HPLC); details: 50 mM MES buffer, 2 hours at 40° C.
Method: 1450 μL each of a 50 mM 2-morpholinoethanesulfonic acid (MES) buffer solution (containing 300 mM NaCl, 140 mM KSCN and 5 mM CaCl2) or the aforementioned buffer solution into which a super solubilizer (0.42% (w/v) NaTC, 0.83% (w/v) NaTC or 1.66% (w/v) NaTC) was dissolved were added to 57 mg of CAVAMAX® W8 CoQ10 (5 mg water content, 12.14 mg CoQ10 and 40 mg γCD) and sonication was performed for several seconds using an ultrasonic apparatus (Ikeda Scientific Co., Ltd.) and left to stand for 2 hours at 40° C.
As a comparison, 2 mL of 50 mM 2-morpholinoethanesulfonic acid (MES) buffer solution (containing 300 mM NaCl, 140 mM KSCN and 5 mM CaCl2) (in lieu of NaTC) was added to 12.14 mg of CoQ10 (in lieu of CAVAMAX® W8 CoQ10), and the mixture was prepared as described above. The resulting mixture was left to stand and filtered and the resulting solution was analyzed using HPLC.

[3] = B-2: solubility of CoQ10 with GZK2 (HPLC); details: 12 mg CoQ10 (as complex or alone) in 3 mL purified water, sonicated 1 hour
Method: 0 mg, 6.2 mg, 12.5 mg, 25 mg or 50 mg of GZK2 was mixed into 60 mg of CAVAMAX® W8 CoQ10 (containing 12 mg of CoQ10) as a super solubilizer and 3 mL purified water was added. The resulting mixture was then sonicated for 1 hour using an ultrasonic apparatus (Ikeda Scientific Co., Ltd.).
As a comparison, GZK2 was incorporated into 12 mg of CoQ10 as a super solubilizer and the mixture was prepared as described above. The resulting mixture was left to stand and filtered and the resulting solution was analyzed using HPLC.

[4] = Follow-up HPLC measurement of curcumin concentration in αCD aqueous solution comparable to Patent Document 2, Table 4
Method: Additionally, given that the maximum value of the concentration of the standard solution which was used as a reference was 100 μg/mL (Patent Document 2, Table 3), the concentration is outside the measurement range of the standard and is likely unreliable.

[5] = A-1 Preparation Method 1: solubility of curcumin with NaTC (HPLC); details: 50 mM MES buffer, sonicated, 2 hours at 40° C., 0.2 μm filter
Method: The mixture was then filtered and the solution obtained was analyzed via HPLC as described above.

[6] = A-2: solubility of curcumin with GZ (HPLC); details: 50 mM MES buffer, 2 hours at 40° C.
[7] = A-4: solubility of curcumin with quillaja saponin (HPLC); details: total 2 mL 10% aqueous ethanol, 1 hour at 40° C.
Method: The mixture was then allowed to stand, was filtered and the resulting solution was analyzed using HPLC.

[8] = A-5: solubility of curcumin with polysorbate (HPLC); details: Super Solubilizer: None (comparison); 1.4 mg curcumin in 2 mL ion-exchanged water
Method: This mixture was then sonicated for several seconds using an ultrasonic apparatus (Ikeda Scientific Co., Ltd.) and left to stand for 10 min at 40° C.
(§1) The resulting mixture was left to stand and filtered and the resulting solution was analyzed using HPLC.

[9] = A-6: solubility of curcumin with methylcellulose (HPLC); details: Super Solubilizer: None (comparison); 1.4 mg curcumin in 2 mL ion-exchanged water
Method: This mixture was then mixed by inversion.
as §1

[10] = A-8: solubility of curcumin with Na glycocholate (HPLC); details: Amount of Na Glycocholate Added 2.0% (w/v); 2 mL water; filtered immediately following mixing

CAPE Concentration ([1]; NaTC concentration 0% (w/v)): 16 µg/mL
CAPE Concentration ([1]; NaTC concentration 1.0% (w/v)): 155 µg/mL
SMILES: O=C(/C=C/c1ccc(O)c(O)c1)OCCc1ccccc1 [CAPE, caffeic acid phenethyl ester]

CoQ10 Concentration ([2]; NaTC concentration 0% (w/v)): 0 µg/mL
CoQ10 Concentration ([2]; NaTC concentration 0.42% (w/v)): 0 µg/mL
CoQ10 Concentration ([2]; NaTC concentration 0.83% (w/v)): 0 µg/mL
CoQ10 Concentration ([2]; NaTC concentration 1.66% (w/v)): 1.52 µg/mL
CoQ10 Concentration ([3]; Amount of GZK2 Added 0 mg): 0.2 µg/mL
CoQ10 Concentration ([3]; Amount of GZK2 Added 6.2 mg): 3.6 µg/mL
CoQ10 Concentration ([3]; Amount of GZK2 Added 12.5 mg): 9.1 µg/mL
CoQ10 Concentration ([3]; Amount of GZK2 Added 25 mg): 3.9 µg/mL
CoQ10 Concentration ([3]; Amount of GZK2 Added 50 mg): 3.9 µg/mL
SMILES: COC1=C(OC)C(=O)C(C/C=C(\C)CC/C=C(\C)CC/C=C(\C)CC/C=C(\C)CC/C=C(\C)CC/C=C(\C)CC/C=C(\C)CC/C=C(\C)CC/C=C(\C)CCC=C(C)C)=C(C)C1=O [CoQ10, coenzyme Q10]

concentration of curcumin ([4]; content of αCD 1%): 1470 ng/mL
concentration of curcumin ([4]; content of αCD 2.5%): 3630 ng/mL
concentration of curcumin ([4]; content of αCD 5%): 8290 ng/mL
Curcumin Concentration ([5]; NaTC concentration 0% (w/v)): 3.95 µg/mL
Curcumin Concentration ([5]; NaTC concentration 0.83% (w/v)): 35.35 µg/mL
Curcumin Concentration ([5]; NaTC concentration 1.66% (w/v)): 219.2 µg/mL
Curcumin Concentration ([6]; GZ Concentration 0% (w/v)): 3.95 µg/mL
Curcumin Concentration ([6]; GZ Concentration 3.50% (w/v)): 98.19 µg/mL
Curcumin Concentration ([7]; Amount of QS Added 0 μL): 0.02 µg/mL
Curcumin Concentration ([7]; Amount of QS Added 200 μL): 16.81 µg/mL
Curcumin Concentration ([7]; Amount of QS Added 1000 μL): 122.96 µg/mL
Curcumin Concentration [8]: 0.01 µg/mL
Curcumin Concentration [9]: 0.01 µg/mL
Curcumin Concentration [10]: 12.31 µg/mL
SMILES: COc1cc(/C=C/C(=O)CC(=O)/C=C/c2ccc(O)c(OC)c2)ccc1O [Curcumin, curcumin]

From US20130309218A1, “PROCESS FOR PRODUCING AQUEOUS SOLUTION CONTAINING FAT-SOLUBLE SUBSTANCE” (WACKER CHEMIE AG, priority 2011, published 2013)
